Laboratory results: patent publication US6573274B1, “Sulfonamide compounds and uses thereof as medicines” (Fujisawa Pharmaceutical Co. Ltd., priority 1998, dated 2003)

system: not listed separately; assay: Oral absorption (Cmax) in rats; type: in vivo; settings: rats; oral; sodium salt compared to the free compound

| Cmax, times greater than the free (non-salt) compound [times] | SMILES |
| --- | --- |
| 2 to 3 | CCCCCS(=O)(=O)NC(=O)c1ccc2nc(C)n(Cc3ccc(OCC4CCCCC4)cc3Cl)c2n1.[Na] [Example 85, 3-[2-chloro-4-(cyclohexylmethyloxy)benzyl]-2-methyl-5-(1-pentanesulfonylcarbamoyl)-3H-imidazo[4,5-b]pyridine sodium salt] |

same assay, conditions: sodium salt compared to the free compound; demonstrated by Cmax in rats and dogs

| oral absorption as compared to the free (non-salt) compound | SMILES |
| --- | --- |
| markedly improved | CCCCCS(=O)(=O)NC(=O)c1ccc2nc(C)n(Cc3ccc(OCC4CCCCC4)cc3Cl)c2n1.[Na] [Example 85, 3-[2-chloro-4-(cyclohexylmethyloxy)benzyl]-2-methyl-5-(1-pentanesulfonylcarbamoyl)-3H-imidazo[4,5-b]pyridine sodium salt] |

system: not given; assay: not given; settings: not given

| melting point [°C] | SMILES |
| --- | --- |
| > 250 | CCCCCS(=O)(=O)NC(=O)c1ccc2nc(C)n(Cc3ccc(OCC4CCCCC4)cc3Cl)c2n1.[Na] [Example 85, 3-[2-chloro-4-(cyclohexylmethyloxy)benzyl]-2-methyl-5-(1-pentanesulfonylcarbamoyl)-3H-imidazo[4,5-b]pyridine sodium salt] |
| 232 to 233 | CCCCCS(=O)(=O)NC(=O)c1ccc2nc(C)n(Cc3ncc(NC(=O)OCC)cc3Cl)c2n1 [Example 132, 3-[(3-chloro-5-(N-(ethoxycarbonyl)amino)pyridin-2-yl)methyl]-2-methyl-5-(1-pentanesulfonylcarbamoyl)-3H-imidazo[4,5-b]pyridine] |
| 164 to 166 | CCCCS(=O)(=O)NC(=O)c1cc(C)c2nc(C)n(Cc3ccc(OCCC)cc3Cl)c2n1 [Example 36, 5-(1-butanesulfonylcarbamoyl)-3-[2-chloro-4-(1-propoxy)benzyl]-2,7-dimethyl-3H-imidazo[4,5-b]pyridine] |
| 208 to 209 | CCCCS(=O)(=O)NC(=O)c1ccc2nc(C)n(Cc3ccc(-c4ccco4)cc3Cl)c2n1 [Example 69, 5-(1-butanesulfonylcarbamoyl)-3-[2-chloro-4-(2-furyl)benzyl]-2-methyl-3H-imidazo[4,5-b]pyridine] |
| 185 to 186 | CCCCCS(=O)(=O)NC(=O)c1ccc2nc(C)n(Cc3ccc(NC)cc3Cl)c2n1 [Example 42, 3-(2-chloro-4-(methylamino)benzyl)-2-methyl-5-(1-pentanesulfonylcarbamoyl)-3H-imidazo[4,5-b]pyridine] |
| 155 to 156 | CCCCCS(=O)(=O)NC(=O)c1ccc2nc(C)n(Cc3ncc(Cl)cc3Cl)c2n1 [Example 123, 3-[(3,5-dichloropyridin-2-yl)methyl]-2-methyl-5-(1-pentanesulfonylcarbamoyl)-3H-imidazo[4,5-b]pyridine] |
| 128 to 131 | CCCCCOc1ccc(Cn2c(C)nc3ccc(C(=O)NS(=O)(=O)CCCCC)nc32)c(Cl)c1 [Example 20, 3-(2-chloro-4-(1-pentyloxy)benzyl)-2-methyl-5-(1-pentanesulfonylcarbamoyl)-3H-imidazo[4,5-b]pyridine] |
| 175 to 177 | CCCCS(=O)(=O)NC(=O)c1ccc2nc(C)n(Cc3ccc(OC)cc3Cl)c2n1 [Example 6, 5-(1-butanesulfonylcarbamoyl)-3-(2-chloro-4-methoxybenzyl)-2-methyl-3H-imidazo[4,5-b]pyridine] |
| > 250 | Cc1cc(C(=O)NS(=O)(=O)c2ccc(Br)s2)nc2c1nc(C)n2Cc1ccc(-c2ccccc2)cc1Cl.[Na] |
| 188 to 189 | CCCCCS(=O)(=O)NC(=O)c1ccc2nc(C)n(Cc3ccc(OC)cc3Cl)c2n1 [Example 5, 3-(2-chloro-4-methoxybenzyl)-2-methyl-5-(1-pentanesulfonylcarbamoyl)-3H-imidazo[4,5-b]pyridine] |
| 136 to 138 | CCCCCOc1ccc(Cn2c(C)nc3ccc(C(=O)NS(=O)(=O)NCCCC)nc32)c(Cl)c1 [Example 26, 5-((1-butylaminosulfonyl)carbamoyl)-3-(2-chloro-4-(1-pentyloxy)benzyl)-2-methyl-3H-imidazo[4,5-b]pyridine] |
| 148 to 149 | CCCCCS(=O)(=O)NC(=O)c1ccc2nc(C)n(Cc3ccc(N(C)CC)cc3Cl)c2n1 [Example 43, 3-(2-chloro-4-(ethylmethylamino)benzyl)-2-methyl-5-(1-pentanesulfonylcarbamoyl)-3H-imidazo[4,5-b]pyridine] |
| 169 to 170 | CCCCCS(=O)(=O)NC(=O)c1ccc2nc(C)n(Cc3ccc(N(C)CC4CCCCC4)cc3Cl)c2n1 [Example 53, 3-(2-chloro-4-(N-(cyclohexylmethyl)methylamino)benzyl)-2-methyl-5-(1-pentanesulfonylcarbamoyl)-3H-imidazo[4,5-b]pyridine] |

| SMILES | melting point [°C] |
| --- | --- |
| CCCCCS(=O)(=O)NC(=O)c1cc(C)c2nc(C)n(Cc3ccc(N(CC)C(=O)OC(C)(C)C)cc3Cl)c2n1 [Example 81, 3-[4-(N-(tert-butoxycarbonyl)-N-ethylamino)-2-chlorobenzyl]-2,7-dimethyl-5-(1-pentanesulfonylcarbamoyl)-3H-imidazo[4,5-b]pyridine] | 190 to 191 |
| CCCCCS(=O)(=O)NC(=O)c1ccc2nc(C)n(Cc3ccc(N(C)C(=O)OC(C)(C)C)cc3Cl)c2n1 [Example 41, 3-(4-(N-(tert-butoxycarbonyl)-N-methylamino)-2-chlorobenzyl)-2-methyl-5-(1-pentanesulfonylcarbamoyl)-3H-imidazo[4,5-b]pyridine] | 160 to 161 |

system: db/db mice; assay: not given; settings: female db/db mice; Dose 1 mg/kg, drug mixed with diet; difference between db/db control group and +/+ mice taken as 100%

| SMILES | Blood sugar decrease (%) |
| --- | --- |
| CCCOc1ccc(Cn2c(C)nc3c(C)cc(C(=O)NS(=O)(=O)c4ccc(C)cc4)nc32)c(Cl)c1 [Compound A, 3-(2-Chloro-4-(1-propoxy)benzyl)-2,7-dimethyl-5-[(4-methylbenzene)sulfonylcarbamoyl]-3H-imidazo[4,5-b]pyridine] | 97 |

system: not listed separately; assay: Oral absorption (Cmax) in dogs; type: in vivo; settings: sodium salt compared to the free compound

| Cmax, times greater than the free (non-salt) compound | SMILES |
| --- | --- |
| about 16 times | CCCCCS(=O)(=O)NC(=O)c1ccc2nc(C)n(Cc3ccc(OCC4CCCCC4)cc3Cl)c2n1.[Na] [Example 85, 3-[2-chloro-4-(cyclohexylmethyloxy)benzyl]-2-methyl-5-(1-pentanesulfonylcarbamoyl)-3H-imidazo[4,5-b]pyridine sodium salt] |
